According to patent publication US11524938B2, “Aromatic sulfonamide derivatives” (Bayer Pharma Aktiengesellschaft, priority 2016, dated 2022):

Biological target: T1, human P2X4 (Homo sapiens, UniProt Q99571)
T1 sequence (Q99571 1-388): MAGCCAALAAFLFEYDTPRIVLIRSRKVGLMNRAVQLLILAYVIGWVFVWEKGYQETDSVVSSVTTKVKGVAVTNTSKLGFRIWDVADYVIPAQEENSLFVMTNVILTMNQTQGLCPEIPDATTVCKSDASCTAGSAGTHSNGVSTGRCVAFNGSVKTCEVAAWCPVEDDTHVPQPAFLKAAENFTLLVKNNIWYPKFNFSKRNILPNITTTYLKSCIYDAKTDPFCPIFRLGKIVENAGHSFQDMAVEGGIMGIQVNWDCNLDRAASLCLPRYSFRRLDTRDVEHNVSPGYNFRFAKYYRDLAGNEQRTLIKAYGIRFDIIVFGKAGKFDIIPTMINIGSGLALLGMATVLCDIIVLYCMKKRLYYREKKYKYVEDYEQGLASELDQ
Test: Human P2X4 HEK Cell FLIPR Assay
Type: cell-based
Settings: agonist Bz-ATP at EC80; for Emax: HEK293, HEK293 cells, percentage of maximal inhibition, read-out: Human P2X4 HEK Cells (FLIPR Assay) avg Efficacy [%]; for IC50: HEK293 cells, individual values listed where some fall outside detection range
Protocol: HEK293 cells stably expressing human P2X4 were plated in poly-D-lysine-coated 384-well plates at a seeding density of 30000 cells/well and incubated overnight. P2X4 function was assessed by measuring intracellular calcium changes using the calcium-chelating dye Fluo8-AM (Molecular Devices) on a fluorescent imaging plate reader (FLEX/FLIPR station; Molecular Devices). On the day of the assay, the medium was removed and the cells were incubated for 30 min at 37° C. and 5% CO2 in 30 μL of dye buffer (Hank's balanced salt solution, 10 mM HEPES, 1.8 mM CaCl2, 1 mM MgCl2, 2 mM probenecid, 5 mM D-glucose monohydrate, 5 μM Fluo8-AM, pH=7.4). Compounds diluted in probenecid buffer (Hank's balanced salt solution, 10 mM HEPES, 1.8 mM CaCl2, 1 mM MgCl2, 2 mM probenecid, 5 mM D-glucose monohydrate, pH=7.4) were added in a volume of 10 μL and allowed to incubate for 30 min at room temperature. The final assay DMSO concentration was 0.5%. The agonist, Bz-ATP (Tocris), was added in a volume of 10 μL at a concentration representing the EC80 value. The EC80 value of Bz-ATP was determined each assay day prior to compound profiling. The fluorescence was measured for an interval of 120 sec at 2 sec intervals. The excitation and emission wavelengths used to monitor fluorescence were 470-495 nm and 515-575 nm, respectively. The data was analyzed based on the increase in peak relative fluorescence units (RFU) compared to the basal fluorescence and the data was normalized to the agonist control. The compounds were tested in triplicates per plate and mean values were plotted in Excel XLFit to determine IC50 values, percentage of maximal inhibition and the Hill coefficients.

SMILES	Emax	IC50
CC(C)Oc1cnn(-c2ccc(NC(=O)Cc3ccccc3Cl)cc2S(N)(=O)=O)c1 [Example 27, 2-(2-Chlorophenyl)-N-[4-(4-isopropoxy-1H-pyrazol-1-yl)-3-sulfamoylphenyl]-acetamide]	74%	70 nM
CC(C)Cc1ncn(-c2ccc(NC(=O)Cc3ccccc3Cl)cc2S(N)(=O)=O)n1 [Example 29, 2-(2-Chlorophenyl)-N-[4-(3-isobutyl-1H-1,2,4-triazol-1-yl)-3-sulfamoylphenyl]-acetamide]	75%	113 nM
CSc1cnn(-c2ccc(NC(=O)Cc3ccccc3Cl)cc2S(N)(=O)=O)c1 [Example 30, 2-(2-Chlorophenyl)-N-{4-[4-(methylsulfanyl)-1H-pyrazol-1-yl]-3-sulfamoylphenyl}-acetamide]	87%	222 nM
COc1cnn(-c2ccc(NC(=O)Cc3ccccc3Cl)cc2S(N)(=O)=O)c1 [Example 31, 2-(2-Chlorophenyl)-N-[4-(4-methoxy-1H-pyrazol-1-yl)-3-sulfamoylphenyl]acetamide]	81%	112 nM
NS(=O)(=O)c1cc(NC(=O)Cc2ccccc2Cl)ccc1-n1cnc2ccccc21 [Example 32, N-[4-(1H-Benzimidazol-1-yl)-3-sulfamoylphenyl]-2-(2-chlorophenyl)acetamide]	93%	139 nM
NS(=O)(=O)c1cc(NC(=O)Cc2ccccc2Cl)ccc1-n1cnc(Cl)c1 [Example 33, N-[4-(4-Chloro-1H-imidazol-1-yl)-3-sulfamoylphenyl]-2-(2-chlorophenyl)acetamide]	79%	31 nM
CN(C)c1ncn(-c2ccc(NC(=O)Cc3ccccc3Cl)cc2S(N)(=O)=O)n1 [Example 34, 2-(2-Chlorophenyl)-N-{4-[3-(dimethylamino)-1H-1,2,4-triazol-1-yl]-3-sulfamoyl-phenyl}acetamide]	79%	448 nM
CCc1ncn(-c2ccc(NC(=O)Cc3ccccc3Cl)cc2S(N)(=O)=O)n1 [Example 35, 2-(2-Chlorophenyl)-N-[4-(3-ethyl-1H-1,2,4-triazol-1-yl)-3-sulfamoylphenyl]acetamide]	90%	224 nM
NS(=O)(=O)c1cc(NC(=O)Cc2ccccc2Cl)ccc1-n1cnc(C2CC2)n1 [Example 36, (2-Chlorophenyl)-N-[4-(3-cyclopropyl-1H-1,2,4-triazol-1-yl)-3-sulfamoylphenyl]-acetamide]	81%	667 nM
NS(=O)(=O)c1cc(NC(=O)Cc2ccccc2Cl)ccc1-n1ncnc1C1CC1 [Example 37, 2-(2-Chlorophenyl)-N-[4-(5-cyclopropyl-1H-1,2,4-triazol-1-yl)-3-sulfamoyl-phenyl]acetamide]	81%	848 nM
COCc1ncn(-c2ccc(NC(=O)Cc3ccccc3Cl)cc2S(N)(=O)=O)n1 [Example 38, 2-(2-Chlorophenyl)-N-{4-[3-(methoxymethyl)-1H-1,2,4-triazol-1-yl]-3-sulfamoyl-phenyl}acetamide]	87%	329 nM
CC(C)(C)c1cn(-c2ccc(NC(=O)Cc3ccccc3Cl)cc2S(N)(=O)=O)cn1 [Example 40, N-[4-(4-tert-Butyl-1H-imidazol-1-yl)-3-sulfamoylphenyl]-2-(2-chlorophenyl)acetamide]	90%	1240 nM
N#Cc1ncn(-c2ccc(NC(=O)Cc3ccccc3Cl)cc2S(N)(=O)=O)n1 [Example 41, 2-(2-Chlorophenyl)-N-[4-(3-cyano-1H-1,2,4-triazol-1-yl)-3-sulfamoylphenyl]acetamide]	70%	357 nM
NS(=O)(=O)c1cc(NC(=O)Cc2ccccc2Cl)ccc1-n1cnc(Br)c1 [Example 42, N-[4-(4-Bromo-1H-imidazol-1-yl)-3-sulfamoylphenyl]-2-(2-chlorophenyl)acetamide]	71%	24 nM
NS(=O)(=O)c1cc(NC(=O)Cc2ccccc2Cl)ccc1-n1cnc2cccnc21 [Example 43, 2-(2-Chlorophenyl)-N-[4-(3H-imidazo[4,5-b]pyridin-3-yl)-3-sulfamoylphenyl]-acetamide]	87%	210 nM
